Reference: patent US6358885B1, “Substituted phenylheterocyclic herbicides” (Mississippi State University, priority 1992, dated 2002)

How the values were obtained:
barley = assay: Test B preemergence/postemergence greenhouse plant response rating 0 to 10; format: in vivo, Hordeum vulgare; conditions: for Plant response rating, Barley: 0 to 10 scale
How it was run: (§1)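 Test chemicals, dissolved in a non-phytotoxic solvent, were applied to soil at planting and, at the same time, over foliage of seedlings at the one to four leaf stage.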

bedstraw = assay: as above; format: in vivo, Galium aparine; conditions: for Plant response rating, Bedstraw: 0 to 10 scale
How it was run: as §1

blackgrass = assay: as above; format: in vivo, Alopecurus myosuroides; conditions: for Plant response rating, Blackgrass: 0 to 10 scale
How it was run: as §1

cocklebur = assay: as above; format: in vivo, Xanthium pensylvanicum; conditions: for Plant response rating, Cocklebur: 0 to 10 scale
How it was run: as §1

crabgrass = assay: as above; format: in vivo, Digitaria spp.; conditions: for Plant response rating, Crabgrass: 0 to 10 scale
How it was run: as §1

lambsquarters = assay: as above; format: in vivo, Chenopodium album; conditions: for Plant response rating, Lambsquarter: 0 to 10 scale
How it was run: as §1

rape = assay: as above; format: in vivo, Brassica napus; conditions: for Plant response rating, Rape: 0 to 10 scale
How it was run: as §1

rice [1] = assay: as above; format: in vivo, Oryza sativa; conditions: for Plant response rating, Rice: 0 to 10 scale
How it was run: as §1

soybean = assay: as above; format: in vivo, Glycine max; conditions: for Plant response rating, Soybean: 0 to 10 scale
How it was run: as §1

sugar beet = assay: as above; format: in vivo, Beta vulgaris; conditions: for Plant response rating, Sugar beet: 0 to 10 scale
How it was run: as §1

purple nutsedge = assay: as above; format: in vivo, Cyperus rotundus; conditions: for Plant response rating, Nutsedge: 0 to 10 scale
How it was run: as §1

corn = assay: Test C preemergence/postemergence greenhouse plant response rating 0 to 100; format: in vivo, Zea mays; conditions: for Plant response rating, Corn: 125 g/ha, 0 to 100 scale
How it was run: (§2)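 Compounds in non-phytotoxic solvent went onto sandy loam before emergence (seeded one day earlier) or onto plants at the one-to-four leaf stage. Duck salad was treated via flood water (~2.5 cm, maintained) over silt loam.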

morningglory = assay: as above; format: in vivo, Ipomoea hederacea; conditions: for Plant response rating, Morningglory: 125 g/ha, 0 to 100 scale
How it was run: as §2

pigweed = assay: as above; format: in vivo, Amaranthusretroflexus; conditions: for Plant response rating Pigweed: 125 g/ha, 0 to 100 scale
How it was run: as §2

sorghum = assay: as above; format: in vivo, Sorghum bicolor; conditions: for Plant response rating, Sorghum: 125 g/ha, 0 to 100 scale
How it was run: as §2

rice [2] = assay: Test C flood test plant response rating 0 to 100; format: in vivo, Oryza sativa
How it was run: (§3)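 Compounds in non-phytotoxic solvent applied preemergence to sandy loam one day after planting, postemergence at the 1–4 leaf stage, or to ~2.5 cm floodwater over silt loam.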

umbrella sedge = assay: Test C flood test plant response rating 0 to 100; format: in vivo, Cyperus difformis
How it was run: as §3

barnyardgrass = assay: Test C flood test plant response rating 0 to 100; format: in vivo, Echinochloa crus-galli
How it was run: as §3

[3] = POSTEMERGENCE section, flood test, Rate 2 g/ha
[4] = Rate 8 g/ha, under POSTEMERGENCE head (flood test species)
[5] = Rate 31 g/ha, under POSTEMERGENCE head (flood test species)
[6] = flood test species listed under POSTEMERGENCE, 125 g/ha, 0 to 100 scale

`CCOCOc1cc(-c2nn3c(c2Cl)CCCC3)c(F)cc1Cl` [Compound 59] was tested, and the “Plant response rating, Barley” value (barley; POSTEMERGENCE, Rate 50 g/ha) was 4, the “Plant response rating, Barley” value (barley; PREEMERGENCE, Rate 50 g/ha) was 2 and the “Plant response rating (0 to 10 scale), Barley” value (barley; PREEMERGENCE, Rate 200 g/ha) was 5. The “Plant response rating, Barley” value (barley; Rate 200 g/ha, POSTEMERGENCE) was 4, the “Plant response rating, Bedstraw” value (bedstraw; POSTEMERGENCE, Rate 50 g/ha) was 10 and the “Plant response rating, Bedstraw” value (bedstraw; PREEMERGENCE, Rate 50 g/ha) was 8. The “Plant response rating (0 to 10 scale), Bedstraw” value (bedstraw; PREEMERGENCE, Rate 200 g/ha) was 10, the “Plant response rating, Bedstraw” value (bedstraw; Rate 200 g/ha, POSTEMERGENCE) was 8 and the “Plant response rating, Blackgrass” value (blackgrass; POSTEMERGENCE, Rate 50 g/ha) was 4. The “Plant response rating, Blackgrass” value (blackgrass; PREEMERGENCE, Rate 50 g/ha) was 4, the “Plant response rating (0 to 10 scale), Blackgrass” value (blackgrass; PREEMERGENCE, Rate 200 g/ha) was 5 and the “Plant response rating, Blackgrass” value (blackgrass; Rate 200 g/ha, POSTEMERGENCE) was 5. The “Plant response rating, Cocklebur” value (cocklebur; POSTEMERGENCE, Rate 50 g/ha) was 7, the “Plant response rating, Cocklebur” value (cocklebur; PREEMERGENCE, Rate 50 g/ha) was 0 and the “Plant response rating (0 to 10 scale), Cocklebur” value (cocklebur; PREEMERGENCE, Rate 200 g/ha) was 8. For the same compound, the “Plant response rating, Cocklebur” value (cocklebur; Rate 200 g/ha, POSTEMERGENCE) was 10, the “Plant response rating, Crabgrass” value (crabgrass; POSTEMERGENCE, Rate 50 g/ha) was 4 and the “Plant response rating, Crabgrass” value (crabgrass; PREEMERGENCE, Rate 50 g/ha) was 5. For the same compound, the “Plant response rating (0 to 10 scale), Crabgrass” value (crabgrass; PREEMERGENCE, Rate 200 g/ha) was 10, the “Plant response rating, Crabgrass” value (crabgrass; Rate 200 g/ha, POSTEMERGENCE) was 5 and the “Plant response rating, Lambsquarter” value (lambsquarters; POSTEMERGENCE, Rate 50 g/ha) was 10. The “Plant response rating, Lambsquarter” value (lambsquarters; PREEMERGENCE, Rate 50 g/ha) was 10, the “Plant response rating (0 to 10 scale), Lambsquarter” value (lambsquarters; PREEMERGENCE, Rate 200 g/ha) was 10 and the “Plant response rating, Lambsquarter” value (lambsquarters; Rate 200 g/ha, POSTEMERGENCE) was 10. For the same compound, the “Plant response rating, Rape” value (rape; POSTEMERGENCE, Rate 50 g/ha) was 10, the “Plant response rating, Rape” value (rape; PREEMERGENCE, Rate 50 g/ha) was 5 and the “Plant response rating (0 to 10 scale), Rape” value (rape; PREEMERGENCE, Rate 200 g/ha) was 10. For the same compound, the “Plant response rating, Rape” value (rape; Rate 200 g/ha, POSTEMERGENCE) was 10, the “Plant response rating, Rice” value (rice [1]; POSTEMERGENCE, Rate 50 g/ha) was 5 and the “Plant response rating, Rice” value (rice [1]; PREEMERGENCE, Rate 50 g/ha) was 0. For the same compound, the “Plant response rating (0 to 10 scale), Rice” value (rice [1]; PREEMERGENCE, Rate 200 g/ha) was 1, the “Plant response rating, Rice” value (rice [1]; Rate 200 g/ha, POSTEMERGENCE) was 5 and the “Plant response rating, Soybean” value (soybean; POSTEMERGENCE, Rate 50 g/ha) was 8. For the same compound, the “Plant response rating, Soybean” value (soybean; PREEMERGENCE, Rate 50 g/ha) was 0, the “Plant response rating (0 to 10 scale), Soybean” value (soybean; PREEMERGENCE, Rate 200 g/ha) was 4 and the “Plant response rating, Soybean” value (soybean; Rate 200 g/ha, POSTEMERGENCE) was 7. The “Plant response rating, Sugar beet” value (sugar beet; POSTEMERGENCE, Rate 50 g/ha) was 10, the “Plant response rating, Sugar beet” value (sugar beet; PREEMERGENCE, Rate 50 g/ha) was 9 and the “Plant response rating (0 to 10 scale), Sugar beet” value (sugar beet; PREEMERGENCE, Rate 200 g/ha) was 10. For the same compound, the “Plant response rating, Sugar beet” value (sugar beet; Rate 200 g/ha, POSTEMERGENCE) was 10, the “Plant response rating, Nutsedge” value (purple nutsedge; POSTEMERGENCE, Rate 50 g/ha) was 2 and the “Plant response rating, Nutsedge” value (purple nutsedge; PREEMERGENCE, Rate 50 g/ha) was 0. The “Plant response rating (0 to 10 scale), Nutsedge” value (purple nutsedge; PREEMERGENCE, Rate 200 g/ha) was 0, the “Plant response rating, Nutsedge” value (purple nutsedge; Rate 200 g/ha, POSTEMERGENCE) was 5 and the “Plant response rating, Corn” value (corn; POSTEMERGENCE) was 65. The “Plant response rating (0 to 100), Corn” value (corn; POSTEMERGENCE, Rate 2 g/ha) was 30, the “Plant response rating, Corn” value (corn; PREEMERGENCE) was 0 and the “Plant response rating (0 to 100), Corn” value (corn; PREEMERGENCE, Rate 2 g/ha) was 0. For the same compound, the “Plant response rating (0 to 100), Corn” value (corn; Rate 8 g/ha, POSTEMERGENCE) was 40, the “Plant response rating (0 to 100), Corn” value (corn; Rate 8 g/ha, PREEMERGENCE) was 0 and the “Plant response rating (0 to 100), Corn” value (corn; Rate 31 g/ha, POSTEMERGENCE) was 50. The “Plant response rating (0 to 100), Corn” value (corn; Rate 31 g/ha, PREEMERGENCE) was 0, the “Plant response rating, Morningglory” value (morningglory; POSTEMERGENCE) was 85 and the “Plant response rating (0 to 100), Morningglory” value (morningglory; POSTEMERGENCE, Rate 2 g/ha) was 70. The “Plant response rating, Morningglory” value (morningglory; PREEMERGENCE) was 10, the “Plant response rating (0 to 100), Morningglory” value (morningglory; PREEMERGENCE, Rate 2 g/ha) was 0 and the “Plant response rating (0 to 100), Morningglory” value (morningglory; Rate 8 g/ha, POSTEMERGENCE) was 70. For the same compound, the “Plant response rating (0 to 100), Morningglory” value (morningglory; Rate 8 g/ha, PREEMERGENCE) was 0, the “Plant response rating (0 to 100), Morningglory” value (morningglory; Rate 31 g/ha, POSTEMERGENCE) was 85 and the “Plant response rating (0 to 100), Morningglory” value (morningglory; Rate 31 g/ha, PREEMERGENCE) was 10. For the same compound, the “Plant response rating Pigweed” value (pigweed; POSTEMERGENCE) was 100, the “Plant response rating (0 to 100), Pigweed” value (pigweed; POSTEMERGENCE, Rate 2 g/ha) was 30 and the “Plant response rating Pigweed” value (pigweed; PREEMERGENCE) was 100. For the same compound, the “Plant response rating (0 to 100), Pigweed” value (pigweed; PREEMERGENCE, Rate 2 g/ha) was 0, the “Plant response rating (0 to 100), Pigweed” value (pigweed; Rate 8 g/ha, POSTEMERGENCE) was 30 and the “Plant response rating (0 to 100), Pigweed” value (pigweed; Rate 8 g/ha, PREEMERGENCE) was 100. For the same compound, the “Plant response rating (0 to 100), Pigweed” value (pigweed; Rate 31 g/ha, POSTEMERGENCE) was 100, the “Plant response rating (0 to 100), Pigweed” value (pigweed; Rate 31 g/ha, PREEMERGENCE) was 100 and the “Plant response rating, Sorghum” value (sorghum; POSTEMERGENCE) was 70. The “Plant response rating (0 to 100), Sorghum” value (sorghum; POSTEMERGENCE, Rate 2 g/ha) was 20, the “Plant response rating, Sorghum” value (sorghum; PREEMERGENCE) was 20 and the “Plant response rating (0 to 100), Sorghum” value (sorghum; PREEMERGENCE, Rate 2 g/ha) was 0. For the same compound, the “Plant response rating (0 to 100), Sorghum” value (sorghum; Rate 8 g/ha, POSTEMERGENCE) was 40, the “Plant response rating (0 to 100), Sorghum” value (sorghum; Rate 8 g/ha, PREEMERGENCE) was 0 and the “Plant response rating (0 to 100), Sorghum” value (sorghum; Rate 31 g/ha, POSTEMERGENCE) was 60. The “Plant response rating (0 to 100), Sorghum” value (sorghum; Rate 31 g/ha, PREEMERGENCE) was 10, the “Plant response rating (0 to 100), Rice Japonica” value (rice [2]; [3]) was 0 and the “Plant response rating (0 to 100), Rice Japonica” value (rice [2]; [4]) was 0. For the same compound, the “Plant response rating (0 to 100), Rice Japonica” value (rice [2]; [5]) was 0, the “Plant response rating Rice Japonica” value (rice [2]; [6]) was 40 and the “Plant response rating (0 to 100), Umbrella sedge” value (umbrella sedge; [3]) was 90. For the same compound, the “Plant response rating (0 to 100), Umbrella sedge” value (umbrella sedge; [4]) was 0, the “Plant response rating (0 to 100), Umbrella sedge” value (umbrella sedge; [5]) was 0 and the “Plant response rating Umbrella sedge” value (umbrella sedge; [6]) was 0. The “Plant response rating (0 to 100), Barnyardgrass 2” value (barnyardgrass; [3]) was 0, the “Plant response rating (0 to 100), Barnyardgrass 2” value (barnyardgrass; [4]) was 90 and the “Plant response rating (0 to 100), Barnyardgrass 2” value (barnyardgrass; [5]) was 100. The “Plant response rating Barnyardgrass 2” value (barnyardgrass; [6]) was 100.
